Like-named read-outs stand apart in the source and are kept apart here.
Target: T1, SIRT1 (Homo sapiens, UniProt Q96EB6)
T1 sequence (Q96EB6 1-747): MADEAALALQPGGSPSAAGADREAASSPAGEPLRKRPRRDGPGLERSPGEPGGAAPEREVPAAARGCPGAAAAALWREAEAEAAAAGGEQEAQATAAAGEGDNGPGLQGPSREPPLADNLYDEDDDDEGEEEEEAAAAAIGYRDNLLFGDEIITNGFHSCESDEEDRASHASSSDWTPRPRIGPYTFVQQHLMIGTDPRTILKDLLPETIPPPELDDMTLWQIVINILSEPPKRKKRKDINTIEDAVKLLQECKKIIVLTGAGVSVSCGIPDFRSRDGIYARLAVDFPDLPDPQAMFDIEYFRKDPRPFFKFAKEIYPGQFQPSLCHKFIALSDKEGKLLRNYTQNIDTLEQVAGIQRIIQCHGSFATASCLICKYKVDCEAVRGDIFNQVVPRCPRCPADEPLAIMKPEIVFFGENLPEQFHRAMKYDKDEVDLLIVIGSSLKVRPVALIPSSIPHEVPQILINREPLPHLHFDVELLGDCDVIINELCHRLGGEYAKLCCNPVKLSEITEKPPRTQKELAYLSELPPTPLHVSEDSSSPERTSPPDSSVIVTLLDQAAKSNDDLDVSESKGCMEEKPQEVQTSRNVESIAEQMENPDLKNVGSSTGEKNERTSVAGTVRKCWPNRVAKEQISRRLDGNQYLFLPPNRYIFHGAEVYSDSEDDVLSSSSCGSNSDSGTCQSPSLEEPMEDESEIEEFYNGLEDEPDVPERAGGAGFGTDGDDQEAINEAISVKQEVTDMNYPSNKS
Test: Trp mass spectrometry assay of SIRT1 activation (Ac-R-H-K-K(Ac)-W-NH2 peptide)
Assay type: biochemical
Conditions: for Emax: 25 min, read-out: TRP MAX RESP (percent maximum fold activation)
Outline: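 Mass spectrometry read-out (OAADPR formed, or deacetylated Trp peptide) after a 25 min NAD-dependent deacetylation by E. coli-expressed His-SIRT1, stopped with formic acid.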

[1] = Trp peptide 0.5 μM, 120 μM βNAD+, 10 nM SIRT1, 25 min at 25° C., relative to control (100%)
[2] = Trp peptide 0.5 μM, 120 μM βNAD+, 10 nM SIRT1, 25 min at 25° C.

Compound	Emax [1] [%]	TRP Activity (EC1.5, concentration of test compound that results in 150% activation of SIRT1) [2]	TRP MAX RESP (percent maximum fold activation) [1]	Emax [%]
C=CCNC(=O)c1ccc2c(n1)N(C(=O)Nc1ccccn1)[C@H]1CCN2C1 [Example 179, (4S)—N7-allyl-N5-(pyridin-2-yl)-3,4-dihydro-1,4-methanopyrido[2,3-b][1,4]diazepine-5,7(2H)-dicarboxamide]	> 150	A (EC1.5<1 μM)	–	–
C[C@@H](NC(=O)c1ccc2c(n1)N(C(=O)Cc1ccccn1)[C@H]1CCN2C1)C(F)(F)F [Example 276, (4S)-5-(2-(pyridin-2-yl)acetyl)-N—((R)-1,1,1-trifluoropropan-2-yl)-2,3,4,5-tetrahydro-1,4-methanopyrido[2,3-b][1,4]diazepine-7-carboxamide]	< 150	C (EC1.5>25 μM)	–	–
O=C(NCC(F)(F)F)c1ccc2c(n1)N(C(=O)Nc1ncc3[nH]ccc3n1)[C@H]1CCN2C1 [Example 140, (4S)—N5-(5H-pyrrolo[3,2-d]pyrimidin-2-yl)-N7-(2,2,2-trifluoroethyl)-3,4-dihydro-1,4-methanopyrido[2,3-b][1,4]diazepine-5,7(2H)-dicarboxamide]	–	A (EC1.5<1 μM)	–	> 150
O=C(NCC(F)(F)F)c1ccc2c(n1)N(C(=O)Nc1ncc3cc[nH]c3n1)[C@H]1CCN2C1 [Example 93, (4S)—N5-(7H-pyrrolo[2,3-d]pyrimidin-2-yl)-N7-(2,2,2-trifluoroethyl)-3,4-dihydro-1,4-methanopyrido[2,3-b][1,4]diazepine-5,7(2H)-dicarboxamide]	–	A (EC1.5<1 μM)	–	> 150
C[C@@H](NC(=O)c1ccc2c(n1)N(C(=O)Nc1cc(-c3cnco3)ccn1)[C@H]1CCN2C1)C(F)(F)F [Example 134, (4S)—N5-(4-(oxazol-5-yl)pyridin-2-yl)-N7-((R)-1,1,1-trifluoropropan-2-yl)-3,4-dihydro-1,4-methanopyrido[2,3-b][1,4]diazepine-5,7(2H)-dicarboxamide]	> 150	A (EC1.5<1 μM)	–	–
O=C(NC1CC1)c1ccc2c(n1)N(C(=O)Nc1cc(OC[C@@H](O)CO)ccn1)[C@H]1CCN2C1 [Example 250, (4S)—N7-cyclopropyl-N5-(4-((S)-2,3-dihydroxypropoxy)pyridin-2-yl)-3,4-dihydro-1,4-methanopyrido[2,3-b][1,4]diazepine-5,7(2H)-dicarboxamide]	> 150	A (EC1.5<1 μM)	–	–
C[C@@H](NC(=O)c1nc2c(cc1Cl)N1CC[C@@H](C1)N2C(=O)Nc1cc(-c2cnco2)ccn1)C(F)(F)F [Example 282, (4S)-8-chloro-N5-(4-(oxazol-5-yl)pyridin-2-yl)-N7-((R)-1,1,1-trifluoropropan-2-yl)-3,4-dihydro-1,4-methanopyrido[2,3-b][1,4]diazepine-5,7(2H)-dicarboxamide]	> 150	A (EC1.5<1 μM)	–	–
C[C@@H](NC(=O)c1ccc2c(n1)N(C(=O)Nc1cc(C(=O)NC3CC3)ccn1)[C@H]1CCN2C1)C(F)(F)F [Example 305, (4S)—N5-(4-(cyclopropylcarbamoyl)pyridin-2-yl)-N7-((R)-1,1,1-trifluoropropan-2-yl)-3,4-dihydro-1,4-methanopyrido[2,3-b][1,4]diazepine-5,7(2H)-dicarboxamide]	< 150	A (EC1.5<1 μM)	–	–
C[C@@H](NC(=O)c1ccc2c(n1)N(C(=O)Nc1cc3cc[nH]c3cn1)[C@H]1CCN2C1)C(F)(F)F [Example 181, (4S)—N5-(1H-pyrrolo[2,3-c]pyridin-5-yl)-N7-((R)-1,1,1-trifluoropropan-2-yl)-3,4-dihydro-1,4-methanopyrido[2,3-b][1,4]diazepine-5,7(2H)-dicarboxamide]	> 150	A (EC1.5<1 μM)	–	–
O=C(NC1CC(F)(F)C1)c1ccc2c(n1)N(C(=O)Nc1ccccn1)[C@H]1CCN2C1 [Example 246, (4S)—N7-(3,3-difluorocyclobutyl)-N5-(pyridin-2-yl)-3,4-dihydro-1,4-methanopyrido[2,3-b][1,4]diazepine-5,7(2H)-dicarboxamide]	> 150	A (EC1.5<1 μM)	–	–
COc1cc(NC(=O)N2c3nc(C(=O)NCC4CC4)ccc3N3CC[C@H]2C3)ncn1 [Example 113, (4S)—N7-(cyclopropylmethyl)-N5-(6-methoxypyrimidin-4-yl)-3,4-dihydro-1,4-methanopyrido[2,3-b][1,4]diazepine-5,7(2H)-dicarboxamide]	> 150	B (EC1.5 1-25 μM)	–	–

The next lines start with results.

Emax [1] [%]	TRP Activity (EC1.5, concentration of test compound that results in 150% activation of SIRT1) [2]	TRP MAX RESP (percent maximum fold activation) [1]	Compound	Emax [%]
> 150	B (EC1.5 1-25 μM)	–	C[C@@H](NC(=O)c1ccc2c(n1)N(C(=O)Nc1cc(OCCN)ccn1)[C@H]1CCN2C1)C(F)(F)F [Example 186, (4S)—N5-(4-(2-aminoethoxy)pyridin-2-yl)-N7-((R)-1,1,1-trifluoropropan-2-yl)-3,4-dihydro-1,4-methanopyrido[2,3-b][1,4]diazepine-5,7(2H)-dicarboxamide]	–
> 150	A (EC1.5<1 μM)	–	C[C@@H](NC(=O)c1ccc2c(n1)N(C(=O)Nc1ccnn(C)c1=O)[C@H]1CCN2C1)C(F)(F)F [Example 122, (4S)—N5-(2-methyl-3-oxo-2,3-dihydropyridazin-4-yl)-N7-((R)-1,1,1-trifluoropropan-2-yl)-3,4-dihydro-1,4-methanopyrido[2,3-b][1,4]diazepine-5,7(2H)-dicarboxamide]	–
> 150	B (EC1.5 1-25 μM)	–	O=C(NCCCO)c1ccc2c(n1)N(C(=O)Nc1ccccn1)[C@H]1CCN2C1 [Example 218, (4S)—N7-(3-hydroxypropyl)-N5-(pyridin-2-yl)-3,4-dihydro-1,4-methanopyrido[2,3-b][1,4]diazepine-5,7(2H)-dicarboxamide]	–
> 150	A (EC1.5<1 μM)	–	O=C(NC[C@H](O)C(F)(F)F)c1ccc2c(n1)N(C(=O)Nc1cc(OC[C@H](O)CO)ccn1)[C@H]1CCN2C1 [Example 91, (4S)—N5-(4-((R)-2,3-dihydroxypropoxy)pyridin-2-yl)-N7-((S)-3,3,3-trifluoro-2-hydroxypropyl)-3,4-dihydro-1,4-methanopyrido[2,3-b][1,4]diazepine-5,7(2H)-dicarboxamide]	–
–	A (EC1.5<1 μM)	–	O=C(NC1CC1(F)F)c1ccc2c(n1)N(C(=O)Nc1ccc(F)cn1)[C@H]1CCN2C1 (single isomer, unassigned) [Example 243]	–
> 150	A (EC1.5<1 μM)	–	C[C@@H](NC(=O)c1ccc2c(n1)N(C(=O)Nc1cncc(OC[C@H](O)CO)n1)[C@H]1CCN2C1)C(F)(F)F [Example 155, (4S)—N5-(6-((R)-2,3-dihydroxypropoxy)pyrazin-2-yl)-N7-((R)-1,1,1-trifluoropropan-2-yl)-3,4-dihydro-1,4-methanopyrido[2,3-b][1,4]diazepine-5,7(2H)-dicarboxamide]	–
< 150	A (EC1.5<1 μM)	–	C[C@@H](NC(=O)c1ccc2c(n1)N(C(=O)Nc1cc(NS(C)(=O)=O)ccn1)[C@H]1CCN2C1)C(F)(F)F [Example 324, (4S)—N5-(4-(methylsulfonamido)pyridin-2-yl)-N7-((R)-1,1,1-trifluoropropan-2-yl)-3,4-dihydro-1,4-methanopyrido[2,3-b][1,4]diazepine-5,7(2H)-dicarboxamide]	–
–	B (EC1.5 1-25 μM)	A (Fold activation≥150%)	O=C(NC1CC1(F)F)c1ccc2c(n1)N(C(=O)Nc1cnccn1)[C@H]1CCN2C1 (single isomer, unassigned) [Example 273]	–
> 150	B (EC1.5 1-25 μM)	–	CONC(=O)c1ccc2c(n1)N(C(=O)Nc1ccccn1)[C@H]1CCN2C1 [Example 228, (4S)—N7-methoxy-N5-(pyridin-2-yl)-3,4-dihydro-1,4-methanopyrido[2,3-b][1,4]diazepine-5,7(2H)-dicarboxamide]	–
